Data reported in patent publication US6545002B1 (University of Virginia Patent Foundation, priority 1999, dated 2003).

Key:
[1] = tested on: myocardial infarction in dogs; assay: Ninety minute LAD coronary artery occlusion/reperfusion, infarct size by TTC staining; format: in vivo, dog; conditions: 200 nM intracoronary at 1 ml/min during occlusion and reperfusion, versus vehicle
rat A1 receptors (rA1) = molecular target: T1, rat A1 receptors (rA1) (Rattus norvegicus, UniProt P25099); assay: Displacement of [3H]R-PIA binding in rat brain (cerebral cortical) membranes; conditions: Table 2; read-out: rA1 Ki or IC50
T1 construct: to A1 receptors from rat cerebral cortical membranes; from tissue; host or cells: rat cerebral cortical (brain) membranes
T1 sequence (P25099 1-326): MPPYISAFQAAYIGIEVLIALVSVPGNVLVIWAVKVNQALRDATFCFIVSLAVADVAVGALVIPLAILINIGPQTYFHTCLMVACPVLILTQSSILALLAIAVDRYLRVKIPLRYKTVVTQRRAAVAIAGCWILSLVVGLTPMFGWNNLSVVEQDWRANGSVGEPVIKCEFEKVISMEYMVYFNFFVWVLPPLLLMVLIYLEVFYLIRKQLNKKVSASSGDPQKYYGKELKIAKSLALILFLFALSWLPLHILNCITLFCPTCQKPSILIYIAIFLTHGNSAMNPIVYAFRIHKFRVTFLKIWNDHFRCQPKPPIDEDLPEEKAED

rat A2A receptors (rA2A) = molecular target: T2, rat A2A receptors (rA2A) (Rattus norvegicus, UniProt P30543); assay: Displacement of [3H]CGS 21680 binding in rat striatal membranes; conditions: Table 2; read-out: rA2A Ki or IC50
T2 construct: to A2A receptors from rat striatal membranes was performed as described; from tissue; host or cells: rat striatal membranes
T2 sequence (P30543 whole entry): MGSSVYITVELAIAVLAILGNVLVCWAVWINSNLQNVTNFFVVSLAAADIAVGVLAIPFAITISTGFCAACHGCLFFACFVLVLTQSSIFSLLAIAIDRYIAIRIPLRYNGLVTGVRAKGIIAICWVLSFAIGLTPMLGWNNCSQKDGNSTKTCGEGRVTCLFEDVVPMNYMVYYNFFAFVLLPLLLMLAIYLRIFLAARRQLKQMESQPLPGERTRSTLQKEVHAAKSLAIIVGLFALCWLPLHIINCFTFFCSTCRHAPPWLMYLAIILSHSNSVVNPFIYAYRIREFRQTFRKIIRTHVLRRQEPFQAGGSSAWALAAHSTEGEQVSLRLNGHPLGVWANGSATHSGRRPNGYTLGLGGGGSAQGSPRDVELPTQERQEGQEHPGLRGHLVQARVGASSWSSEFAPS

Ki (rat A1 receptors (rA1)): 0.0168 ± 0.0036 µM
Ki (rat A2A receptors (rA2A)): 0.612 ± 0.287 µM
SMILES: CCCn1c(=O)c2[nH]c(-c3ccc(OCC(=O)Nc4ccc(C#N)cc4)cc3)nc2n(CCC)c1=O [Compound 27, 8-[4-[((4-Cyano)phenylcarbamoylmethyl)oxy]phenyl]-1,3-di-(n-propyl)xanthine]
infarct size / infarct area (IA) as %LV or %RA [1]: significantly reduced the infarct area
